Ki data for 17 molecules are collected here from patent US10273236B2, “Macrocyclic factor XIa inhibitors bearing heterocyclic groups” (Bristol-Myers Squibb Company, priority 2014, dated 2019).

pKi: −log10 of the molar value. Structures can show the parent of a compound that is named as a salt.

Assay [1] deals with T1, purified human plasma kallikrein (Homo sapiens, UniProt P03952).
T1 construct: Plasma prekallikrein is a zymogen of a trypsin-like serine protease; purchased Enzyme Research Laboratories
T1 sequence (P03952 391-638 limits assumed): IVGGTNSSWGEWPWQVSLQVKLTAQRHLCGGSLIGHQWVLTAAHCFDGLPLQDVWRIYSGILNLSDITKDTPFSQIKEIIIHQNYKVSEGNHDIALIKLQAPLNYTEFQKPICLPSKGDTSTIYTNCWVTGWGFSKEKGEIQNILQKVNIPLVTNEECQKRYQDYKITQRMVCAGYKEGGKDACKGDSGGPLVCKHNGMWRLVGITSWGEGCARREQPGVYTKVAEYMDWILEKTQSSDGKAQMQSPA
T1 sequence (P03952 20-390 partner limits assumed): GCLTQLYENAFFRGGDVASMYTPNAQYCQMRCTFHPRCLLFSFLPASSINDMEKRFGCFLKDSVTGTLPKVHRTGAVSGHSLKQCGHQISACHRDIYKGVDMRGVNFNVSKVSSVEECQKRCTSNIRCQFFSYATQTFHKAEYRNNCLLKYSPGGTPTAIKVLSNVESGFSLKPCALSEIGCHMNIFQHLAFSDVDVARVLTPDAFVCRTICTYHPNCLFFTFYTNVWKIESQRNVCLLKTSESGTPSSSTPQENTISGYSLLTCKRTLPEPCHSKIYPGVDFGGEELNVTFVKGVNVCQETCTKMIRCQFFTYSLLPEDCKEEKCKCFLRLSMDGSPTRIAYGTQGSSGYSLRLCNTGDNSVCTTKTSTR
In words: Plasma kallikrein inhibition assay, chromogenic substrate S-2302 (Ki). It counts as biochemical. The method, then:
(§1) The effectiveness of compounds of the present invention as inhibitors of the coagulation Factors XIa, VIIa, IXa, Xa, XIIa, plasma kallikrein or thrombin, can be determined using a relevant purified serine protease, respectively, and an appropriate synthetic substrate. The rate of hydrolysis of the chromogenic or fluorogenic substrate by the relevant serine protease was measured both in the absence and presence of compounds of the present invention. […] A decrease in the rate of absorbance or fluorescence change in the presence of inhibitor is indicative of enzyme inhibition. Such methods are known to one skilled in the art. The results of this assay are expressed as the inhibitory constant, Ki.
Plasma kallikrein determinations were made in 0.1 M sodium phosphate buffer at a pH of 7.5 containing 0.1-0.2 M sodium chloride and 0.5% PEG 8000. Determinations were made using purified human plasma kallikrein (Enzyme Research Laboratories) at a final assay concentration of 200 pM and the synthetic substrate S-2302 (H-(D)-Pro-Phe-Arg-pNA; Chromogenix) at a concentration of 0.00008-0.0004 M.
(§2) Values of Ki were determined by allowing the protease to react with the substrate in the presence of the inhibitor.
(§3) Reactions were allowed to go for periods of 20-180 minutes (depending on the protease) and the velocities (rate of absorbance or fluorescence change versus time) were measured.
(§4) The following relationships were used to calculate Ki values: (Vmax*S)/(Km+S) (vo−vs)/vs=I/(Ki(1+S/Km)) for a competitive inhibitor with one binding site; or vs/vo=A+((B−A)/1+((IC50/(I)^n))); and Ki=IC50/(1+S/Km) for a competitive inhibitor where: […]

The target in assay [2] is T2, purified human Factor XIa (Homo sapiens, UniProt P03951).
T2 construct: purchased Haematologic Technologies
T2 sequence (P03951 388-625 limits assumed): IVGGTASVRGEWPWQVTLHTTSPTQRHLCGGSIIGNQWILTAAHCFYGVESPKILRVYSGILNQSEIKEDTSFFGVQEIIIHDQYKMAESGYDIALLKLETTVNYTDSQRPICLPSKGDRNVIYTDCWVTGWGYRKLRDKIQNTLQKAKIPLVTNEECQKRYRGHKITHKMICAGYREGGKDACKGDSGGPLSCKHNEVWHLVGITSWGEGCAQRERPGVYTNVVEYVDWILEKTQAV
T2 sequence (P03951 19-387 partner limits assumed): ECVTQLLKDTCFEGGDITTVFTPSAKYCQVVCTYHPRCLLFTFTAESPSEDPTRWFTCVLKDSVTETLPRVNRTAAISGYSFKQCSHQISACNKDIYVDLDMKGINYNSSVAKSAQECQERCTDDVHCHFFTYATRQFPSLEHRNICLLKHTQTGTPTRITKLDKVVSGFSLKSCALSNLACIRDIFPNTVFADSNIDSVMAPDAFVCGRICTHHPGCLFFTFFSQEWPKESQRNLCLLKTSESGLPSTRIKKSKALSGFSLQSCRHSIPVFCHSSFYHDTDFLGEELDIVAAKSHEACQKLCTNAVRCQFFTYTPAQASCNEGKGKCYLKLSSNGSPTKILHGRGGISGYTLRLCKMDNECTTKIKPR
In words: Factor XIa inhibition assay, chromogenic substrate S-2366 (Ki). It counts as biochemical. The method, then:
as §1
Factor XIa determinations were made in 50 mM HEPES buffer at pH 7.4 containing 145 mM NaCl, 5 mM KCl, and 0.1% PEG 8000 (polyethylene glycol; JT Baker or Fisher Scientific). Determinations were made using purified human Factor XIa at a final concentration of 25-200 pM (Haematologic Technologies) and the synthetic substrate S-2366 (pyroGlu-Pro-Arg-pNA; Chromogenix or AnaSpec) at a concentration of 0.0002-0.001 M.
as §2, §3, §4

Broadly, the pKi is the Ki on a negative log10 scale, so that one unit is a factor of ten. Read a high pKi as a low Ki. In the case of `C[C@@H]1CCC[C@H](N2CCC(c3c(C(F)(F)F)ccc(Cl)c3F)=CC2=O)c2cc(ccn2)-c2c(cnn2C)NC1=O` [Example 6], the pKi in assay [1] was 8.15; in assay [2] it was 8.77.
In the case of `C[C@@H]1CCC[C@H](N2CCC(c3c(C(F)F)ccc(Cl)c3F)=CC2=O)c2cc(ccn2)-c2c(cnn2C)NC1=O` [Example 26, (9R,13S)-13-{4-[3-chloro-6-(difluoromethyl)-2-fluorophenyl]-6-oxo-1,2,3,6-tetrahydropyridin-1-yl}-3,9-dimethyl-3,4,7,15-tetraazatricyclo [12.3.1.0^2,6]octadeca-1(18),2(6),4,14,16-pentaen-8-one], the pKi was 8.30 in assay [1] and 9.32 in assay [2].
Take `C[C@@H]1CCC[C@H](N2CCC(c3cc(Cl)ccc3-n3cc(Cl)nn3)=CC2=O)c2cc(ccn2)-c2c(cnn2C(F)F)NC1=O` [Example 55, (9R,13S)-13-{4-[5-chloro-2-(4-chloro-1H-1,2,3-triazol-1-yl)phenyl]-6-oxo-1,2,3,6-tetrahydropyridin-1-yl}-3-(difluoromethyl)-9-methyl-3,4,7,15-tetraazatricyclo[12.3.1.0^2,6]octadeca-1(18),2(6),4,14,16-pentaen-8-one]: the pKi in assay [1] is 8.22; in assay [2], 10.00.
Consider `C[C@@H]1CCC[C@H](N2CCC(c3c(F)ccc(Cl)c3F)=CC2=O)c2cc(ccn2)-c2c(cnn2C(F)F)NC1=O` [Example 22, (9R,13S)-13-[4-(3-chloro-2,6-difluorophenyl)-6-oxo-1,2,3,6-tetrahydropyridin-1-yl]-3-(difluoromethyl)-9-methyl-3,4,7,15-tetraazatricyclo [12.3.1.0^2,6]octadeca-1(18),2(6),4,14,16-pentaen-8-one], for which the pKi in assay [1] was 7.30; in assay [2], 8.10.
Take `[2H]C([2H])([2H])n1ncc2c1-c1cc(ccn1)[C@@H](n1ncc(-c3cc(Cl)ccc3-n3cc(C(F)(F)F)nn3)cc1=O)CCC[C@@H](C)C(=O)N2` [Example 64, (9R,13S)-13-(4-{5-Chloro-2-[4-(trifluoromethyl)-1H-1,2,3-triazol-1-yl]phenyl}-6-oxo-1,6-dihydropyridazin-1-yl)-3-(^2H3)methyl-9-methyl-3,4,7,17-tetraazatricyclo[12.3.1.0^2,6]octadeca-1(18),2(6),4,14,16-pentaen-8-one]: the pKi in assay [1] is 7.28; in assay [2], 9.15.
Regarding `C[C@@H]1CCC[C@H](N2CCC(c3cc(Cl)ccc3-n3cc(Cl)nn3)=CC2=O)c2cc(ccn2)-c2c(cnn2C2CC2(F)F)NC1=O` (stereo partly drawn) [Example 56, (9R,13S)-13-{4-[5-chloro-2-(4-chloro-1H-1,2,3-triazol-1-yl)phenyl]-6-oxo-1,2,3,6-tetrahydropyridin-1-yl}-3-(2,2-difluorocyclopropyl)-9-methyl-3,4,7,15-tetraazatricyclo[12.3.1.0^2,6]octadeca-1(18),2(6),4,14,16-pentaen-8-one], the figures for the negative logarithm of the Ki (pKi) in assay [1] and in assay [2] were 7.52 and 9.44, respectively.
Turning to `C[C@@H]1CCC[C@H](N2CCC(c3cc(Cl)ccc3C#N)=CC2=O)c2cc(ccn2)-c2c(cnn2C)NC1=O` [Example 57, 4-chloro-2-{1-[(9R,13S)-3,9-dimethyl-8-oxo-3,4,7,15-tetraazatricyclo[12.3.1.0^2,6]octadeca-1(18),2(6),4,14,16-pentaen-13-yl]-6-oxo-1,2,3,6-tetrahydropyridin-4-yl}benzonitrile], the pKi was 7.85 in assay [1] and 8.40 in assay [2].
Consider `[2H]C([2H])([2H])n1ncc2c1-c1ccnc(c1)[C@@H](N1CCC(c3cc(Cl)ccc3-n3cc(Cl)nn3)=CC1=O)CCC[C@@H](C)C(=O)N2` [Example 17, (9R,13S)-13-{4-[5-chloro-2-(4-chloro-1H-1,2,3-triazol-1-yl)phenyl]-6-oxo-1,2,3,6-tetrahydropyridin-1-yl}-3-(^2H3)methyl-9-methyl-3,4,7,15-tetraazatricyclo[12.3.1.0^2,6]octadeca-1(18),2(6),4,14,16-pentaen-8-one], for which the pKi in assay [1] was 8.00; in assay [2] it was 9.82.
As for `C[C@@H]1CCC[C@H](N2CCC(c3c(C(F)(F)F)ccc(Cl)c3F)=CC2=O)c2cccc(c2)-c2c(cnn2C)NC1=O` [Example 49, (9R,13S)-13-{4-[3-chloro-2-fluoro-6-(trifluoromethyl)phenyl]-6-oxo-1,2,3,6-tetrahydropyridin-1-yl}-3,9-dimethyl-3,4,7-triazatricyclo[12.3.1.0^2,6]octadeca-1(18),2(6),4,14,16-pentaen-8-one], the values for the negative logarithm of the Ki (pKi) in assay [1] and in assay [2] were 7.16 and 8.49, respectively.
Regarding `[2H]C([2H])([2H])n1ncc2c1-c1ccnc(c1)[C@@H](N1CCC(c3cc(Cl)ccc3-n3cc(C(F)(F)F)nn3)=CC1=O)CCC[C@@H](C)C(=O)N2` [Example 42, (9R,13S)-13-(4-{5-chloro-2-[4-(trifluoromethyl)-1H-1,2,3-triazol-1-yl]phenyl}-6-oxo-1,2,3,6-tetrahydropyridin-1-yl)-3-(^2H3)methyl-9-methyl-3,4,7,15-tetraazatricyclo[12.3.1.0^2,6]octadeca-1(18),2(6),4,14,16-pentaen-8-one], the pKi in assay [1] was 8.15; in assay [2], 10.00.
On to `CCn1ncc2c1-c1ccnc(c1)[C@@H](N1CCC(c3c(F)ccc(Cl)c3F)=CC1=O)CCC[C@@H](C)C(=O)N2` [Example 10, (9R,13S)-13-[4-(3-chloro-2,6-difluorophenyl)-6-oxo-1,2,3,6-tetrahydropyridin-1-yl]-3-ethyl-9-methyl-3,4,7,15-tetraazatricyclo[12.3.1.0^2,6]octadeca-1(18),2(6),4,14,16-pentaen-8-one], for which the pKi in assay [1] was 7.30; in assay [2], 7.85.
For `C[C@H]1C(=O)Nc2cnn(C)c2-c2ccnc(c2)[C@@H](N2CCC(c3cc(Cl)ccc3-n3cc(Cl)nn3)=CC2=O)CCC1F` (single isomer, unassigned; isomer a) [Example 13], the pKi in assay [1] is 8.22; in assay [2], 10.00.
For the molecule `[2H]C([2H])([2H])n1ncc2c1-c1ccnc(c1)[C@@H](n1ccc(-c3cc(Cl)ccc3-n3cc(C(F)(F)F)nn3)cc1=O)CCC[C@@H](C)C(=O)N2` [Example 62, (9R,13S)-13-(4-{5-Chloro-2-[4-(trifluoromethyl)-1H-1,2,3-triazol-1-yl]phenyl}-2-oxo-1,2-dihydropyridin-1-yl)-3-(^2H3)methyl-9-methyl-3,4,7,15-tetraazatricyclo[12.3.1.0^2,6]octadeca-1(18),2(6),4,14,16-pentaen-8-one, trifluoroacetate], the negative logarithm of the Ki (pKi) in assay [1] is 8.22; in assay [2], 10.00.
Regarding `CCn1ncc2c1-c1ccnc(c1)[C@@H](N1CCC(c3c(F)ccc(Cl)c3F)=CC1=O)CCC[C@@H](C)C(=O)N2` [Example 45, (9R,13S)-13-[4-(3-chloro-2,6-difluorophenyl)-6-oxo-1,2,3,6-tetrahydropyridin-1-yl]-3-ethyl-9-methyl-3,4,7,15-tetraazatricyclo[12.3.1.0^2,6]octadeca-1(18),2(6),4,14,16-pentaen-8-one], the values for the pKi in assay [1] and in assay [2] were 7.27 and 7.89, respectively.
Regarding `C[C@@H]1CCC[C@H](N2CCC(c3c(F)ccc(Cl)c3F)=CC2=O)c2cc(ccn2)-c2nn(-c3ccnc(O)c3)cc2NC1=O` [Example 9, (9R,13S)-13-[4-(3-chloro-2,6-difluorophenyl)-6-oxo-1,2,3,6-tetrahydropyridin-1-yl]-4-(2-hydroxypyridin-4-yl)-9-methyl-3,4,7,15-tetraazatricyclo[12.3.1.0^2,6]octadeca-1(18),2,5,14,16-pentaen-8-one], the pKi in assay [1] and in assay [2] was 7.85 throughout.
Turning to `CCn1ncc2c1-c1ccnc(c1)[C@@H](N1CCC(c3cc(Cl)ccc3-n3ccnn3)=CC1=O)CCC[C@@H](C)C(=O)N2` (stereo in doubt) [Example 7, 13-{4-[5-chloro-2-(1H-1,2,3-triazol-1-yl)phenyl]-6-oxo-1,2,3,6-tetrahydropyridin-1-yl}-3-ethyl-9-methyl-3,4,7,15-tetraazatricyclo[12.3.1.0^2,6]octadeca-1(18),2(6),4,14,16-pentaen-8-one], the pKi in assay [1] was 7.39.
Same read-out and setting: the same measure for `C[C@@H]1CCC[C@H](N2CCC(c3cc(Cl)ccc3-n3ccnn3)=CC2=O)c2cc(ccn2)-c2c(cnn2CC(F)F)NC1=O` (stereo in doubt) [Example 8, 13-{4-[5-chloro-2-(1H-1,2,3-triazol-1-yl)phenyl]-6-oxo-1,2,3,6-tetrahydropyridin-1-yl}-3-(2,2-difluoroethyl)-9-methyl-3,4,7,15-tetraazatricyclo [12.3.1.0^2,6]octadeca-1(18),2(6),4,14,16-pentaen-8-one]: 7.05.
